Results as given in patent publication US12679853B2, “Magnesium-serinate compound and use thereof” (priority 2018, dated 2026).

How the values were obtained:
[1] = tested on: Murine hippocampal neuronal cell line HT-22; assay: Cell viability (MTT) assay for neuronal cell proliferation activity
Protocol: Murine hippocampal neuronal cell line HT-22 was cultured in Dulbecco's Modified Eagle's Medium (DMEM) supplemented with 10% fetal bovine serum (FBS) and 100 μg/ml gentamycin at 37° C. under a 5% CO2 atmosphere. In this Example, cells at passage 15 or below were used.
Cell proliferation activity was examined by an MTT assay for measuring cell viability. First, hippocampal neuronal cell HT-22 (1×10^4 cells) was incubated with each of serially diluted sample solutions in 96-well plates for 16 hours, and then mixed with 50 μl of MTT (3-(4,5-dimethyl thiazolyl)2,5-diphenyl tetrazolium bromide) solution (1.1 mg/ml), followed by additional incubation for 4 hours. The formed formazan crystal was dissolved in 150 μl of DMSO solution, and the optical density (OD) at 540 nm was measured using a plate reader.

[2] = tested on: mitochondria in the hippocampal neuron cell line HT-22; assay: Seahorse XF Cell Mito Stress Test, mitochondrial oxygen consumption rate; conditions: HT-22, 4 h drug treatment, various concentrations
Protocol: All procedures were performed according to the protocol of the Mito Stress Test Kit. First, hippocampal neuronal HT-22 cells were seeded into an XP-96 cell culture plate at a density of 8×10^3 cells/well, and then incubated in DMEM medium in a CO2 incubator at 37° C. for 12 hours. Then, the cells were treated with various concentrations of each of serine and the AST-011 drug. 4 hours after drug treatment, the medium was replaced with fresh medium, and the cells were further incubated in a CO2 incubator at 37° C. for 12 hours. After 12 hours of incubation, the cells were washed twice with assay medium (10 mM glucose, 1 mM pyruvate, 2 mM glutamine, pH 7.4), and 180 μl of medium was added thereto. Then, the cells were incubated in a non-CO2 incubator at 37° C. for 1 hour, and analyzed by a Seahorse extracellular flux (XF) analyzer.

[3] = Blood-brain barrier (BBB) permeability, L-serine in blood and brain by LC/MS; design: species or system ICR mice; conditions: male, ICR, mouse, in vivo, po, 600 mg/kg
Protocol: Each of L-serine and AST-011 was administered to 7-week-old ICR mice (n=3) at a dose of 600 mg/kg, and then the brain tissue and the blood were collected. The concentrations of L-serine distributed in the blood and the brain were quantified using LC/MS, and the BBB permeability was compared between the drugs by calculating the ratio of the concentration of L-serine in the brain to that in the blood.

[4] = tested on: mouse hippocampal neuronal HT-22 cells, treated with DMNQ; assay: Neuronal cell protective activity against DMNQ-induced oxidative stress (DiOC6 staining, flow cytometry); format: cell-based; conditions: HT-22, DMNQ (10 μM) alone
Protocol: First, 1×10^6 cells were washed three times with 2% FBS-containing PBS solution, and the washed cells were suspended in 70% ethanol and fixed at 4° C. for 1 hour. The fixed cells were washed twice with the same solution, suspended in 250 μl of RNase A solution (50 μg/ml concentration), and incubated at 37° C. for 30 minutes to remove RNA from the cells. […] The cells were analyzed with a flow cytometer (FACS Calibur), and the distribution of the cell cycle was examined based on the content of stained DNA in each cell.

N[C@@H](CO)C(=O)O [L-serine]
activation of cell proliferation ([1]; HT-22, complete medium, 25 to 10,000 μg): did not significantly activate cell proliferation
viability at 500 µg/mL ([1]; Mus musculus, HT-22, read-out: cell viability): 125%
oxygen consumption rate (OCR) value of mitochondria [2]: OCR value increased at a treatment concentration of up to 100 μg/ml and then decreased slightly at 500 μg/ml
Concentration Plasma (L-serine) [3]: 636 ± 55.2 ng/mL

COC1=C(OC)C(=O)c2ccccc2C1=O [DMNQ, 2,3-dimethoxy-1,4-napthoquinone]
cell damage rate [4]: 77.8%
